“Also recorded” adds a separate entry of the source.

For series [1] the following is noted: in vivo; cited from earlier work.
The next series concerns the target T1, ADCK3 (Homo sapiens, UniProt Q8NI60).
T1 construct: T7 phage fusion (most kinases) or DNA tag for qPCR (HEK-293-made kinases); purchased DiscoverX (Fremont, CA); host or cells: E. coli BL21-derived host (T7 phage) or HEK-293
The series is described as follows: ScanEDGE kinase panel (DiscoverX). Format: binding. The conditions noted are these: read-out: % of control activity at 71 nM. The method, boiled down:
(§1)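 Competitive binding format from a 96-kinase panel. Ligand beads were blocked with biotin and a BSA/Tween/DTT buffer before use. Compounds were diluted into the reaction from 40× stocks in 100% DMSO, and the amount of bound kinase was read by qPCR.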

The target of the next series is T2, AKT1 (Homo sapiens, UniProt P31749).
T2 construct: T7 phage fusion (most kinases) or DNA tag for qPCR (HEK-293-made kinases); purchased DiscoverX (Fremont, CA); host or cells: E. coli BL21-derived host (T7 phage) or HEK-293
T2 sequence (P31749 whole entry, the tested form may be a part): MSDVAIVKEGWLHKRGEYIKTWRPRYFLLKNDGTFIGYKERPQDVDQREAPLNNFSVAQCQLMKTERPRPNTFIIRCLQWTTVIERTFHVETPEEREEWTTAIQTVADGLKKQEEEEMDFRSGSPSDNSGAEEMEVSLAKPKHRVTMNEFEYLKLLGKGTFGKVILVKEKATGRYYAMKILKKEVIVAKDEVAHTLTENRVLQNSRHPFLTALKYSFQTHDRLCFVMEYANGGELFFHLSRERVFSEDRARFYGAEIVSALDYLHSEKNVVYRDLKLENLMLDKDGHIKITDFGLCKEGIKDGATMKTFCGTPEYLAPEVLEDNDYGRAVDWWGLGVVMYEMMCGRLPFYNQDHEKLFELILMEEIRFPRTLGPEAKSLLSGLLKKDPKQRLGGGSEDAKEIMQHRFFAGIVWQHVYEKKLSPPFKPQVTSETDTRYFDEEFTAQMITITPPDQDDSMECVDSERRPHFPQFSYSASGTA
The series is described as follows: ScanEDGE kinase panel (DiscoverX). The class given is binding. The note with it: read-out: % of control activity at 71 nM. The method, boiled down: as §1

In the next series the target is T3, AMPK-alpha1 (Homo sapiens, UniProt Q13131).
T3 construct: T7 phage fusion (most kinases) or DNA tag for qPCR (HEK-293-made kinases); purchased DiscoverX (Fremont, CA); host or cells: E. coli BL21-derived host (T7 phage) or HEK-293
The series is described as follows: ScanEDGE kinase panel (DiscoverX). The class given is binding. The note with it: read-out: % of control activity at 71 nM. The method, boiled down:
as §1

The target of another series is T4, CSNK1D (Homo sapiens, UniProt P48730).
T4 construct: T7 phage fusion (most kinases) or DNA tag for qPCR (HEK-293-made kinases); purchased DiscoverX (Fremont, CA); host or cells: E. coli BL21-derived host (T7 phage) or HEK-293
T4 sequence (P48730 whole entry, the tested form may be a part): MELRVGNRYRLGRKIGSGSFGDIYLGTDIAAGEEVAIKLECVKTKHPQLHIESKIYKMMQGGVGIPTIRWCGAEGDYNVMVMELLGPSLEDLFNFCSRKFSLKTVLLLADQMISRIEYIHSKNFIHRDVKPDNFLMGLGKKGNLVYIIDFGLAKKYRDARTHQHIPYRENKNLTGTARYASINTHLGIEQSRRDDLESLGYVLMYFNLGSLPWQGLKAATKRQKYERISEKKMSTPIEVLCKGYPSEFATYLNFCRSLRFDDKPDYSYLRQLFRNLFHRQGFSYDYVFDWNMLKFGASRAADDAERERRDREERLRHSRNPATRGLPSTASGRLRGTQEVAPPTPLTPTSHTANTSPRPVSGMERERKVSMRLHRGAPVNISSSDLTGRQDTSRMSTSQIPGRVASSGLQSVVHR
The series is described as follows: ScanEDGE kinase panel (DiscoverX). The class given is binding. The note with it: read-out: % of control activity at 71 nM. A digest of the protocol:
as §1

A further series addresses T5, ERBB4 (Homo sapiens, UniProt Q15303).
T5 construct: T7 phage fusion (most kinases) or DNA tag for qPCR (HEK-293-made kinases); purchased DiscoverX; host or cells: E. coli BL21-derived host (T7 phage) or HEK-293
The series is described as follows: ScanEDGE kinase panel (DiscoverX). The class given is binding. The conditions noted are these: read-out: % of control activity at 71 nM. A digest of the protocol:
as §1

A further series deals with T6, GSK3B (Homo sapiens, UniProt P49841).
T6 construct: T7 phage fusion (most kinases) or DNA tag for qPCR (HEK-293-made kinases); purchased DiscoverX; host or cells: E. coli BL21-derived host (T7 phage) or HEK-293
T6 sequence (P49841 whole entry, the tested form may be a part): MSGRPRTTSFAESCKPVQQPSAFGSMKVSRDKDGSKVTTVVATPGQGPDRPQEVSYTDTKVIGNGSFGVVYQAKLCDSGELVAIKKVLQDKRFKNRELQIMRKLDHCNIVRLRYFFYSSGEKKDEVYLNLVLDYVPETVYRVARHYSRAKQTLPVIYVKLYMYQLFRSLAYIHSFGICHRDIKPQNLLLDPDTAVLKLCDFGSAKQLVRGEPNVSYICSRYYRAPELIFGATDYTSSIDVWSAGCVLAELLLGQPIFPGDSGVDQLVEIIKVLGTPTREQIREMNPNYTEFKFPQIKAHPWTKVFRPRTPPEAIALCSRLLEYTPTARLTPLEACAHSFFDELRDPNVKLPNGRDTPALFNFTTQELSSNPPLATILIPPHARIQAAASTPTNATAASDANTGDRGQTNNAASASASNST
The series is described as follows: ScanEDGE kinase panel (DiscoverX). Format: binding. The conditions noted are these: read-out: % of control activity at 71 nM. The method, boiled down: as §1

The target in a further series is T7, HCK (Homo sapiens, UniProt P08631).
T7 construct: T7 phage fusion (most kinases) or DNA tag for qPCR (HEK-293-made kinases); purchased DiscoverX; host or cells: E. coli BL21-derived host (T7 phage) or HEK-293
The series is described as follows: ScanEDGE kinase panel (DiscoverX). The class given is binding. The conditions noted are these: read-out: % of control activity at 71 nM. A digest of the protocol:
as §1

Another series addresses T8, KIT (Homo sapiens, UniProt P10721).
T8 construct: T7 phage fusion (most kinases) or DNA tag for qPCR (HEK-293-made kinases); purchased DiscoverX; host or cells: E. coli BL21-derived host (T7 phage) or HEK-293
The series is described as follows: ScanEDGE kinase panel (DiscoverX). Format: binding. The conditions noted are these: read-out: % of control activity at 71 nM. A digest of the protocol: as §1

For a further series, the target named is T9, MEK1 (Homo sapiens, UniProt Q02750).
T9 construct: T7 phage fusion (most kinases) or DNA tag for qPCR (kinases made in HEK-293); purchased DiscoverX; host or cells: E. coli BL21-derived host (T7 phage) or HEK-293
T9 sequence (Q02750 whole entry, the tested form may be a part): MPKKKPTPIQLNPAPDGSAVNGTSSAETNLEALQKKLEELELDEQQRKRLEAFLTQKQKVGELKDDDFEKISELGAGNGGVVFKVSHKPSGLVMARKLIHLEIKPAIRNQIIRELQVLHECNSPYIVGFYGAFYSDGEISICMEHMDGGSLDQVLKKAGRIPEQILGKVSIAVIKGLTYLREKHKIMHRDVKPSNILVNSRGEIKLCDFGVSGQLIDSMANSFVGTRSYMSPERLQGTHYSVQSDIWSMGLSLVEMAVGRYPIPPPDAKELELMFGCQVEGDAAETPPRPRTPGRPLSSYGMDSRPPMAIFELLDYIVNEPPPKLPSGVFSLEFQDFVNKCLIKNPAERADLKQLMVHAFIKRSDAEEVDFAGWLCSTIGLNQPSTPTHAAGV
The series is described as follows: ScanEDGE kinase panel (DiscoverX). Format: binding. The note with it: read-out: % of control activity at 71 nM. The method, boiled down: as §1

The target in the next series is T10, MKNK1 (Homo sapiens, UniProt Q9BUB5).
T10 construct: T7 phage fusion (most kinases) or DNA tag for qPCR (kinases made in HEK-293); purchased DiscoverX; host or cells: E. coli BL21-derived host (T7 phage) or HEK-293
T10 sequence (Q9BUB5 whole entry, the tested form may be a part): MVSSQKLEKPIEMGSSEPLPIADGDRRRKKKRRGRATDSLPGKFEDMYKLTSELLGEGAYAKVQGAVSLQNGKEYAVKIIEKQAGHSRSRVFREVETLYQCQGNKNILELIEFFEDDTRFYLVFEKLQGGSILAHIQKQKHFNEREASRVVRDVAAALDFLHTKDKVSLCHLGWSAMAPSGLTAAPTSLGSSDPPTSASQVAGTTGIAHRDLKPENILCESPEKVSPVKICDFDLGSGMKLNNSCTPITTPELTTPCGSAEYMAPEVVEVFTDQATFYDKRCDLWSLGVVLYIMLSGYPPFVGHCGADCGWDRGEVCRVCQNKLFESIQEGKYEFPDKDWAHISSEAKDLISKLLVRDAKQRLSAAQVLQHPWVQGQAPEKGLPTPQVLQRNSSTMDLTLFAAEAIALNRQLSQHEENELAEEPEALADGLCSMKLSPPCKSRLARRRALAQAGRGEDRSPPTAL
The series is described as follows: ScanEDGE kinase panel (DiscoverX). The class given is binding. The conditions noted are these: read-out: % of control activity at 71 nM. A digest of the protocol:
as §1

Another series deals with T11, PDPK1 (Homo sapiens, UniProt O15530).
T11 construct: T7 phage fusion (most kinases) or DNA tag for qPCR (kinases made in HEK-293); purchased DiscoverX; host or cells: E. coli BL21-derived host (T7 phage) or HEK-293
T11 sequence (O15530 whole entry, the tested form may be a part): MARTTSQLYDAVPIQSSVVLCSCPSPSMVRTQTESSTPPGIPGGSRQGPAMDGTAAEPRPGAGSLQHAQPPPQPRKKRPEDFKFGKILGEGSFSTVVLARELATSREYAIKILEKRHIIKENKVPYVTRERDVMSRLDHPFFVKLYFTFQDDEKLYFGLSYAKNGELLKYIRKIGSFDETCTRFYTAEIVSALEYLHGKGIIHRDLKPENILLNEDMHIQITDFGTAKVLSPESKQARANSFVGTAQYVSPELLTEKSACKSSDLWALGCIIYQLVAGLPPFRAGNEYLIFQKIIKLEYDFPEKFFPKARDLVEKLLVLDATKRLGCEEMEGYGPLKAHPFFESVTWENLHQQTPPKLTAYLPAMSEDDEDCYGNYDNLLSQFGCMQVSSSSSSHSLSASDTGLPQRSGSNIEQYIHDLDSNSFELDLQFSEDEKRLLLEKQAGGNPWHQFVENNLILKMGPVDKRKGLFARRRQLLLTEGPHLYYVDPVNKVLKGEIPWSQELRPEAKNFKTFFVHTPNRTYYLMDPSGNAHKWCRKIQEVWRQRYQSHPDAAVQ
The series is described as follows: ScanEDGE kinase panel (DiscoverX). Format: binding. The conditions noted are these: read-out: % of control activity at 71 nM. The method, boiled down:
as §1

In a further series the target is T12, PIK3CG (Homo sapiens, UniProt P48736).
T12 construct: T7 phage fusion (most kinases) or DNA tag for qPCR (kinases made in HEK-293); purchased DiscoverX; host or cells: E. coli BL21-derived host (T7 phage) or HEK-293
The series is described as follows: ScanEDGE kinase panel (DiscoverX). Format: binding. The conditions noted are these: read-out: % of control activity at 71 nM. A digest of the protocol: as §1

A further series concerns the target T13, PIM3 (Homo sapiens, UniProt Q86V86).
T13 construct: T7 phage fusion (most kinases) or DNA tag for qPCR (kinases made in HEK-293); purchased DiscoverX; host or cells: E. coli BL21-derived host (T7 phage) or HEK-293
The series is described as follows: ScanEDGE kinase panel (DiscoverX). The class given is binding. The note with it: read-out: % of control activity at 71 nM. A digest of the protocol:
as §1

In another series the target is T14, QSK (SIK3) (Homo sapiens, UniProt Q9Y2K2).
T14 construct: T7 phage fusion (most kinases) or DNA tag after HEK-293 expression; purchased DiscoverX (Fremont, CA), ScanEDGE; host or cells: T7 phage in E. coli BL21-derived host, or HEK-293
T14 sequence (Q9Y2K2 whole entry, the tested form may be a part): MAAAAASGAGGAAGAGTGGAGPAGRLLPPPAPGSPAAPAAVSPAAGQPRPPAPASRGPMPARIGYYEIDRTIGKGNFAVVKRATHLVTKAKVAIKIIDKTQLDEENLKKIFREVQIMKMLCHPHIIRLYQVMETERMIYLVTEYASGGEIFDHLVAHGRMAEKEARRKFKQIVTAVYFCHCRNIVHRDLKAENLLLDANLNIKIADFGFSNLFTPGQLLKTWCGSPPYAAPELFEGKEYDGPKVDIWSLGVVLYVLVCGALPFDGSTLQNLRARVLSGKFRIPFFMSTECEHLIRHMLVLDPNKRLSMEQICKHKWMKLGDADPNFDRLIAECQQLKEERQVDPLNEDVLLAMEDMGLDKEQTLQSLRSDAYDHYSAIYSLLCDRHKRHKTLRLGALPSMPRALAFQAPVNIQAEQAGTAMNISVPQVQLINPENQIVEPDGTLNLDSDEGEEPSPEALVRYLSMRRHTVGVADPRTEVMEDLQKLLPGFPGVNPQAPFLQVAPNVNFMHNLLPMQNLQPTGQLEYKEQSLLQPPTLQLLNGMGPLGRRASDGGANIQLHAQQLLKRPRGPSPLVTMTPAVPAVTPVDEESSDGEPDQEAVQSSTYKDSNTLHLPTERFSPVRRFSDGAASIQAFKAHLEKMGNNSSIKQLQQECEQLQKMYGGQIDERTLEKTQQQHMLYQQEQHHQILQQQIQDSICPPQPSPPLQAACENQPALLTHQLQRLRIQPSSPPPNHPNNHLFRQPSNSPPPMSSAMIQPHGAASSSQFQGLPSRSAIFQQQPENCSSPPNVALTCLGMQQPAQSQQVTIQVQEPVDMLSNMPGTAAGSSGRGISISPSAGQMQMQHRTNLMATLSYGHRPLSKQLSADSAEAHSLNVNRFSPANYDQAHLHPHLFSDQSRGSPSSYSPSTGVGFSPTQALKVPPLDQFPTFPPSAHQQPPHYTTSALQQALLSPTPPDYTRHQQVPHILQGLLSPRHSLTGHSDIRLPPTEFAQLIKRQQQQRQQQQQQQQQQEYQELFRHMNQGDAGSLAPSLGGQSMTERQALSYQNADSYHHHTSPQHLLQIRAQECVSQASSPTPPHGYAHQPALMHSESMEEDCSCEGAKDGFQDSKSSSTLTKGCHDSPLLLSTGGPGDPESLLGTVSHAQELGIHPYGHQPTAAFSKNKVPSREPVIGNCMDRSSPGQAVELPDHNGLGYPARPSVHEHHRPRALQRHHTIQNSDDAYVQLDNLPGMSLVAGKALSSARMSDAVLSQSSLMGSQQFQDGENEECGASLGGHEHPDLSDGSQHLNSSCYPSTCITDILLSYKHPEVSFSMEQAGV
The series is described as follows: ScanEDGE kinase panel (DiscoverX). The class given is binding. The note with it: QSK refers to SIK3, read-out: % of control activity at 71 nM. The method, boiled down: as §1

A further series addresses T15, RET (Homo sapiens, UniProt P07949).
T15 construct: T7 phage fusion (most kinases) or DNA tag after HEK-293 expression; purchased DiscoverX (Fremont, CA), ScanEDGE; host or cells: T7 phage in E. coli BL21-derived host, or HEK-293
The series is described as follows: ScanEDGE kinase panel (DiscoverX). Format: binding. The conditions noted are these: read-out: % of control activity at 71 nM. A digest of the protocol:
as §1

The target of a further series is T16, TRKA (Homo sapiens, UniProt P04629).
T16 construct: T7 phage fusion (most kinases) or DNA tag after HEK-293 expression; purchased DiscoverX (Fremont, CA), ScanEDGE; host or cells: T7 phage in E. coli BL21-derived host, or HEK-293
The series is described as follows: ScanEDGE kinase panel (DiscoverX). The class given is binding. The note with it: read-out: % of control activity at 71 nM. The method, boiled down:
as §1

The next series relates to Ocy454 cells. The series is described as follows: Immunoblotting of Ocy454 cell lysates (HDAC4/5, CRTC2, SIK2 phosphorylation and localisation). The note with it: 10 uM, 90 minutes, compared to DMSO control; FIGS. 17 to 19. Format: cell-based, mouse. As for the experimental part: The Ocy454 osteocyte cell line was treated for 90 minutes with the indicated compound at 10 uM dose (FIG. 17). Phospho-HDAC4 S246 levels were monitored by immunoblotting (top band) compared to DMSO control.
For all experiments, a single cell subclone of Ocy454 cells (17, 18) was used. Cells were passages in alpha-MEM supplemented with 10% heat-inactivated fetal bovine serum and 1% antibiotics (penicillin/streptomycin, Fungizone) at 33° C. with 5% CO2. Cells were plated at 50,000 cells/ml and allowed to reach confluency at 33° C. (typically in 2-3 days). At this point, cells were transferred to 37° C. for subsequent analysis. For immunoblotting, cells were always analyzed after culture at 37° C. for 7 days. For gene expression analysis, cells were analyzed after culture at 37° C. for 14 days. Mycoplasma contamination was ruled out by PCR. Cells were routinely assayed for SOST expression at 37° C. and examined for osteocytic morphology. […]
(In general: In western blotting, separated proteins are transferred to a membrane and probed.)

Series [2] in a line: Half-life in murine hepatic microsomes. The class given is in vitro ADME. The note with it: compared to YKL-04-114 and HG-9-91-01; FIG. 16. On the procedure: FIG. 16: The half-life (in minute) of the indicated compound was measured in murine hepatic microsomes.

T8 sequence (P10721 26-976): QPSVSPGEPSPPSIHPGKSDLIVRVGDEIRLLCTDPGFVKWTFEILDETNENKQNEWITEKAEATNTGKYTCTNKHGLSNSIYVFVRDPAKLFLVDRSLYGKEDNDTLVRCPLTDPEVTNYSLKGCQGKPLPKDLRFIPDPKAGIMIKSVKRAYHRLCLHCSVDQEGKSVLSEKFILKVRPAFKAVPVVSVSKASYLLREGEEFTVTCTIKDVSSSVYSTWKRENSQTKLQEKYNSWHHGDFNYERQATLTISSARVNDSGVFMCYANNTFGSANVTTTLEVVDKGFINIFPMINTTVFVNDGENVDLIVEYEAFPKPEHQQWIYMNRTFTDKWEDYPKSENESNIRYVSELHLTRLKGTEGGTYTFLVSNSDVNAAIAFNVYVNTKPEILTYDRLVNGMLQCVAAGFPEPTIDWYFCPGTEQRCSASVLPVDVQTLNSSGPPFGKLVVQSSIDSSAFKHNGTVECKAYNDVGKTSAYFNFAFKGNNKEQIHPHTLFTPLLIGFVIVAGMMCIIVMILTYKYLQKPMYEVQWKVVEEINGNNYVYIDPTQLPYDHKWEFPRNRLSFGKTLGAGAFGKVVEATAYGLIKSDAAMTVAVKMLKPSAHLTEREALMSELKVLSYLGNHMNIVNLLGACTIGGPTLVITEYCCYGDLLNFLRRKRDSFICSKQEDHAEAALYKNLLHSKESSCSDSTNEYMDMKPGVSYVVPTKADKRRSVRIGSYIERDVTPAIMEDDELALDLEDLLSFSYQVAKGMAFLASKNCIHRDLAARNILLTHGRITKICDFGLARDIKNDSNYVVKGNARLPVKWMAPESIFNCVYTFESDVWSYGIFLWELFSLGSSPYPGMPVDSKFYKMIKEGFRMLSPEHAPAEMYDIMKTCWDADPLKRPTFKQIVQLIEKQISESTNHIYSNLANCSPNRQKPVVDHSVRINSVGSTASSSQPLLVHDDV

With `COc1ccc(N2C(=O)N(c3c(C)cccc3Cl)Cc3cnc(Nc4ccc(C5CCN(C)CC5)cc4OC)nc32)nc1` [YKL-05-099], in series [1], the tolerability entry is “well-tolerated”.
On to `COc1ccc(N2C(=O)N(c3c(C)cccc3C)Cc3cnc(Nc4ccc(C5CCN(C)CC5)c(OC)c4)nc32)c(OC)c1` [YKL-05-093], for which the remaining binding at 0.071 µM turned out to be 93% on ADCK3; 92% on AKT1; 94% at AMPK-alpha1; 98% on CSNK1D; 6.1% on ERBB4; 68% at GSK3B. Further, the remaining binding at 0.071 µM was 1.2% on HCK; 1.8% at KIT; 20% on MEK1; 76% on MKNK1; 55% on PDPK1; 80% at PIK3CG. Also, the remaining binding at 0.071 µM came to 84% on PIM3, 5.3% at QSK (SIK3), 3.6% on RET and 74% at TRKA. Moreover, the “Phospho-HDAC4 S246 levels” value in the series with Ocy454 cells was “showed clear activity with respect to reducing HDAC4 S246 levels; also recorded: most reproducibly led to reduced HDAC4 S246 phosphorylation”. Besides, the “half-life / stability in murine hepatic microsomes” value in series [2] is “improved half-life; also recorded: somewhat improved stability”.

(Values after patent US12121521B2, “Uses of salt-inducible kinase (SIK) inhibitors for treating osteoporosis” (The General Hospital Corporation, priority 2016, dated 2024).)
